Reference: patent US8017775B2, “1-2-dihydroquinoline derivative having glucocorticoid receptor binding activity” (Santen Pharmaceutical Co., Ltd., priority 2005, dated 2011)

Molecular target: T1, Recombinant human GR (Homo sapiens, UniProt P04150)
T1 construct: purchased Invitrogen P2816
T1 sequence (P04150 1-777): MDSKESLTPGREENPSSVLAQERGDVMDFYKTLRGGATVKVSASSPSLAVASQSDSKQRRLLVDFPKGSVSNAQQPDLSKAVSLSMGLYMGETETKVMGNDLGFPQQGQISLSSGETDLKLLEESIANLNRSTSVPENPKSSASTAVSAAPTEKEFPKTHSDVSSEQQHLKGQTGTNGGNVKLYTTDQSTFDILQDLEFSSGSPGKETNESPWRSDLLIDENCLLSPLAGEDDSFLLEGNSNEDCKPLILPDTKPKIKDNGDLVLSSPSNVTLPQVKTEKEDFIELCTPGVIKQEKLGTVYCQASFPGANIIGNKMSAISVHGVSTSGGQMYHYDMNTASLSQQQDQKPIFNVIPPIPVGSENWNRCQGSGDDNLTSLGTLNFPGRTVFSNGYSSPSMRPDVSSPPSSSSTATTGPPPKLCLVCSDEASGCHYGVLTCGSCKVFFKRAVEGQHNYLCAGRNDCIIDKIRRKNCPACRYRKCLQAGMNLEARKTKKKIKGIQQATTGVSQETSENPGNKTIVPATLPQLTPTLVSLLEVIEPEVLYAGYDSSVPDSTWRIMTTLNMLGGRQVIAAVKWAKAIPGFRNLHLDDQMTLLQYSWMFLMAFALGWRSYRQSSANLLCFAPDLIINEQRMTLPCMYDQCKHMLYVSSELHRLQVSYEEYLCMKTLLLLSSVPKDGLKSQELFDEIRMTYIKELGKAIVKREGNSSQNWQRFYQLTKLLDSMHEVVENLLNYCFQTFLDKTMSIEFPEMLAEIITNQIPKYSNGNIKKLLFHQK
Assay: GR competitor assay by fluorescence polarization (GR binding ratio)
Details: positive control 2 mM dexamethasone, a GR binding ratio of 100% or more is indicated by 100%
Experimental: 1. Evaluation Test for Binding Activity to Glucocorticoid Receptor (hereinafter referred to as “GR”)
In order to evaluate a binding activity to GR, a receptor competitor assay was carried out by a fluorescence polarization method. In the assay, a GR competitor assay kit (manufactured by Invitrogen, cat No. P2816) was used, and a procedure was carried out according to the protocol attached to the kit. Hereinafter, the specific method will be described.
GR screening buffer: A buffer containing 10 mM potassium phosphate (pH 7.4), 20 mM sodium molybdate (Na2MoO4), 0.1 mM ethylene diamine tetraacetic acid (EDTA), 5 mM dithiothreitol (DTT), 0.1 mM stabilizing peptide and 2% dimethylsulfoxide was prepared.
4×GS1 solution: Fluormone™ GS1, which is a fluorescent glucocorticoid ligand, was diluted with GR screening buffer, whereby a 4 nM solution was prepared.
4×GR solution: Recombinant human GR was diluted with GR screening buffer, whereby a 16 nM solution was prepared.
After a test compound was dissolved in dimethylsulfoxide, the resulting solution was diluted with GR screening buffer, whereby a 20 μM test compound solution was prepared.
1) The test compound solution was added in an amount of 25 μL or 10 μL into each well of a 96-well or 384-well plate, and then, 4×GS1 solution and 4×GR solution were added in an amount of 12.5 μL or 5 μL into each well, respectively.
2) The plate was incubated in a dark place at room temperature for 2 to 4 hours.
3) By using a multimode plate reader, Analyst™ HT (manufactured by LJL Biosystems), fluorescence polarization of each well was measured. As the blank, a well containing GR screening buffer in place of the test compound and 4×GS1 solution was used.
4) The same procedure as that in the above 1) to 3) was carried out except that GR screening buffer was used in place of the test compound solution, and the obtained result was taken as the negative control.
5) The same procedure as that in the above 1) to 3) was carried out except that 2 mM dexamethasone was used in place of the test compound solution, and the obtained result was taken as the positive control.
A GR binding ratio (%) was calculated from the following equation.
GR binding ratio (%)=100×[1−(fluorescence polarization of test compound solution−fluorescence polarization of positive control solution)/(fluorescence polarization of negative control solution−fluorescence polarization of positive control solution)]

| GR Binding ratio (%) | SMILES |
| --- | --- |
| ≥ 100 | COc1cc(F)ccc1-c1ccc2c(c1COC(=O)c1sccc1Cl)C(C)=CC(C)(C)N2 [Compound 12-17, 5-[(3-Chlorothiophen-2-yl)carbonyloxymethyl]-6-(4-fluoro-2-methoxyphenyl)-2,2,4-trimethyl-1,2-dihydroquinoline] |
| ≥ 100 | CCc1ccccc1OCc1c(-c2ccc(F)cc2OC)ccc2c1C(C)=CC(C)(C)N2 [Compound 3-33, 5-(2-Ethylphenoxymethyl)-6-(4-fluoro-2-methoxyphenyl)-2,2,4-trimethyl-1,2-dihydroquinoline] |
| ≥ 100 | COc1cc(F)ccc1-c1ccc2c(c1CNc1cc(F)ccc1C)C(C)=CC(C)(C)N2 [Compound 6-57, 6-(4-Fluoro-2-methoxyphenyl)-5-(5-fluoro-2-methylphenylaminomethyl)-2,2,4-trimethyl-1,2-dihydroquinoline] |
| ≥ 100 | COc1cc(F)ccc1-c1ccc2c(c1COc1ccccc1C(C)C)C(C)=CC(C)(C)N2 [Compound 3-69, 5-(2-Isopropylphenoxymethyl)-6-(4-fluoro-2-methoxyphenyl)-2,2,4-trimethyl-1,2-dihydroquinoline] |
| ≥ 100 | COc1ccc(F)cc1-c1ccc2c(c1COc1ccccc1CCO)C(C)=CC(C)(C)N2 [Compound 3-99, 6-(5-Fluoro-2-methoxyphenyl)-5-[2-(2-hydroxyethyl)phenoxymethyl]-2,2,4-trimethyl-1,2-dihydroquinoline] |
| ≥ 100 | COc1cc(F)ccc1-c1ccc2c(c1COc1cc(C=O)ccc1C)C(C)=CC(C)(C)N2 [Compound 3-94, 6-(4-Fluoro-2-methoxyphenyl)-5-(5-formyl-2-methylphenoxymethyl)-2,2,4-trimethyl-1,2-dihydroquinoline] |
| ≥ 100 | COc1ccc(Cl)cc1-c1ccc2c(c1COc1cc(F)ccc1C)C(C)=CC(C)(C)N2 [Compound 14-13, 6-(5-Chloro-2-methoxyphenyl)-5-(5-fluoro-2-methylphenoxymethyl)-2,2,4-trimethyl-1,2-dihydroquinoline] |
| ≥ 100 | COc1ccc(F)cc1-c1ccc2c(c1COc1cc(F)ccc1C)C(C)=CC(C)(C)N2 [Compound 14-43, 6-(5-Fluoro-2-methoxyphenyl)-5-(5-fluoro-2-methylphenoxymethyl)-2,2,4-trimethyl-1,2-dihydroquinoline] |
| ≥ 100 | COc1ccc(F)cc1-c1ccc2c(c1COc1cc(C)ccc1C)C(C)=CC(C)(C)N2 [Compound 14-40, 5-(2,5-Dimethylphenoxymethyl)-6-(5-fluoro-2-methoxyphenyl)-2,2,4-trimethyl-1,2-dihydroquinoline] |
| ≥ 100 | COc1ccccc1NCc1c(-c2cc(F)ccc2OC)ccc2c1C(C)=CC(C)(C)N2 [Compound 6-75, 6-(5-Fluoro-2-methoxyphenyl)-5-(2-methoxyphenylaminomethyl)-2,2,4-trimethyl-1,2-dihydroquinoline] |
| 99 | COc1cc(F)ccc1-c1ccc2c(c1COC(=O)c1ccc3c(c1)OCO3)C(C)=CC(C)(C)N2 [Compound 12-42, 5-[(1,3-Benzodioxol-5-yl)carbonyloxymethyl]-6-(4-fluoro-2-methoxyphenyl)-2,2,4-trimethyl-1,2-dihydroquinoline] |
| ≥ 100 | COc1cc(F)ccc1-c1ccc2c(c1COC(=O)c1ccc(Br)s1)C(C)=CC(C)(C)N2 [Compound 12-25, 5-[(5-Bromothiophen-2-yl)carbonyloxymethyl]-6-(4-fluoro-2-methoxyphenyl)-2,2,4-trimethyl-1,2-dihydroquinoline] |
| ≥ 100 | COc1ccc(C(F)(F)F)cc1-c1ccc2c(c1COC(=O)c1ccc(C)s1)C(C)=CC(C)(C)N2 [Compound 12-73, 6-(2-Methoxy-5-trifluoromethylphenyl)-5-(5-methylthiophen-2-ylcarbonyloxymethyl)-2,2,4-trimethyl-1,2-dihydroquinoline] |
| ≥ 100 | COc1ccc(F)cc1-c1ccc2c(c1COC(=O)c1ccc(C)s1)C(C)=CC(C)(C)N2 [Compound 12-76, 6-(5-Fluoro-2-methoxyphenyl)-5-(5-methylthiophen-2-ylcarbonyloxymethyl)-2,2,4-trimethyl-1,2-dihydroquinoline] |
| ≥ 100 | COc1cc(F)ccc1-c1ccc2c(c1COc1cc([N+](=O)[O-])ccc1C)C(C)=CC(C)(C)N2 [Compound 3-72, 6-(4-Fluoro-2-methoxyphenyl)-5-(2-methyl-5-nitrophenoxymethyl)-2,2,4-trimethyl-1,2-dihydroquinoline] |
| ≥ 100 | CCc1ccc(C(=O)OCc2c(-c3ccc(F)cc3OC)ccc3c2C(C)=CC(C)(C)N3)s1 [Compound 12-20, 5-[(5-Ethylthiophen-2-yl)carbonyloxymethyl]-6-(4-fluoro-2-methoxyphenyl)-2,2,4-trimethyl-1,2-dihydroquinoline] |
| ≥ 100 | COc1ccc(C(=O)OCc2c(-c3ccc(F)cc3OC)ccc3c2C(C)=CC(C)(C)N3)s1 [Compound 12-33, 6-(4-Fluoro-2-methoxyphenyl)-5-[(5-methoxythiophen-2-yl)carbonyloxymethyl]-2,2,4-trimethyl-1,2-dihydroquinoline] |
| ≥ 100 | COc1cc(F)ccc1-c1ccc2c(c1COc1cc([N+](=O)[O-])ccc1C#N)C(C)=CC(C)(C)N2 [Compound 3-91, 5-(2-Cyano-5-nitrophenoxymethyl)-6-(4-fluoro-2-methoxyphenyl)-2,2,4-trimethyl-1,2-dihydraquinoline] |
| 99 | C=CCc1ccccc1OCc1c(-c2cc(C)ccc2OC)ccc2c1C(C)=CC(C)(C)N2 [Compound 14-21, 5-(2-Allylphenoxymethyl)-6-(2-methoxy-5-methylphenyl)-2,2,4-trimethyl-1,2-dihydroquinoline] |
| ≥ 100 | C=CCOc1ccc(-c2ccc3c(c2COc2cc(F)ccc2C)C(C)=CC(C)(C)N3)c(OC)c1 [Compound 15-7, 6-(4-Allyloxy-2-methoxyphenyl)-5-(5-fluoro-2-methylphenoxymethyl)-2,2,4-trimethyl-1,2-dihydroquinoline] |
| ≥ 100 | COC(=O)Cc1ccccc1OCc1c(-c2ccc(F)cc2OC)ccc2c1C(C)=CC(C)(C)N2 [Compound 14-1, 6-(4-Fluoro-2-methoxyphenyl)-5-(2-methoxycarbonylmethylphenoxymethyl)-2,2,4-trimethyl-1,2-dihydroquinoline] |
| ≥ 100 | C=CCc1ccccc1OCc1c(-c2ccc(F)cc2OC)ccc2c1C(C)=CC(C)(C)N2 [Compound 3-74, 6-(4-Fluoro-2-methoxyphenyl)-5-(2-allylphenoxymethyl)-2,2,4-trimethyl-1,2-dihydroquinoline] |
| ≥ 100 | COc1ccccc1NCc1c(-c2cc(C)ccc2OC)ccc2c1C(C)=CC(C)(C)N2 [Compound 6-76, 6-(2-Methoxy-5-methylphenyl)-5-(2-methoxyphenylaminomethyl)-2,2,4-trimethyl-1,2-dihydroquinoline] |
| ≥ 100 | COc1cc(F)ccc1-c1ccc2c(c1COC(=O)c1cc(C)cs1)C(C)=CC(C)(C)N2 [Compound 12-21, 6-(4-Fluoro-2-methoxyphenyl)-5-[(4-methylthiophen-2-yl)carbonyloxymethyl]-2,2,4-trimethyl-1,2-dihydroquinoline] |
| 99 | CCc1cccc(NCc2c(-c3ccc(F)cc3OC)ccc3c2C(C)=CC(C)(C)N3)c1 [Compound 6-40, 5-(3-Ethylphenylaminomethyl)-6-(4-fluoro-2-methoxyphenyl)-2,2,4-trimethyl-1,2-dihydroquinoline] |
